How the values were obtained:
[1] = Tissue distribution study after intravenous administration; format: in vivo, Sprague-Dawley rats; conditions: rats, i.v. 5 mg/kg; for Kp at 0.5 h / Kp at 1 h / Kp at 4 h / Kp at 2 h: n = 5
Description: The rat was sacrificed quickly by decapitation on the ice. The various tissues (heart, liver, spleen, lung, kidney, brain, stomach, intestine) were harvested and rinsed with ice-cold 0.9% NaCl to remove the superficial blood. After being blotted dry with filter paper, each tissue sample was weighed on ice and physiological saline added ([…]) to homogenize. Then, a 100 μL (equivalent to 50 mg) of tissue homogenate was taken and processed using the same method as the plasma samples processing method as shown in the above steps.
The mobile phase consisted of methanol and 0.1% formic acid water using a gradient dilution at a flow rate of 0.3 mL/min. The column temperature was maintained at 30 °C. Alnustone was quantitatively determined with MRM in the positive ion mode, and nitrogen was used to assist nebulization in the ESI source. The MS parameters were set as follows: The ionspray voltage (IS) 5500 V; nebulizer gas (gas 1) 19 arbitrary units; curtain gas (CUR) 10 arbitrary units; collision cell exit potential (CXP) 7.0 V; entrance potential (EP) 10.0 V. The optimization of the MS transitions using the multiple-reaction monitoring (MRM) mode were accomplished as alnustone m/z 262.9→105.2 and IS (caffeine) m/z 195.2→138.0, respectively.
For the tissue distribution study, 20 SD rats were randomly divided into four groups (5 rats for each time point) and fasted for 12 h with free access to water prior to administration. After the rats were tail intravenously administrated of alnustone (5 mg/kg), the tissue specimens (heart, liver, spleen, lung, kidney, brain, stomach and intestine) were collected at 0.5, 1, 2, and 4 h post-dosing, respectively. The blank tissues were prepared separately using drug-free SD rats. The tissue harvesting and homogenizing method were given in Section 3.5. For the plasma and tissue homogenate sample preparation method, also see Section 3.5.

[2] = system: LO-2 (human normal liver cells); parameters: method as in earlier work; conditions: LO-2 cell line; cited from earlier work
[3] = Plasma pharmacokinetic study after single intravenous administration; format: in vivo; conditions: Sprague-Dawley, rat, rats, single i.v. 5 mg/kg
Description: In this study, a direct protein precipitation method was applied to extract alnustone and IS from the biological matrix. An aliquot 100 μL of plasma, 50 μL of IS solution (1 μg/mL) and 200 μL of precipitate agent acetonitrile with 0.5% formic acid was added into a 1.5 mL Eppendorf tube. The mixture was vortex-mixed for 30 s at room temperature, and centrifuged at 12,000× g for 10 min. […] The residuals were reconstituted in 100 μL of methanol-0.1% fomic acid water (20:80, v/v) by vortex mixing for 30 s. After centrifuging at 12,000× g for 10 min, a 10 μL aliquot of the supernatant was used for the UHPLC-MS/MS analysis. The mobile phase consisted of methanol and 0.1% formic acid water using a gradient dilution at a flow rate of 0.3 mL/min. The column temperature was maintained at 30 °C. Alnustone was quantitatively determined with MRM in the positive ion mode, and nitrogen was used to assist nebulization in the ESI source. The MS parameters were set as follows: The ionspray voltage (IS) 5500 V; nebulizer gas (gas 1) 19 arbitrary units; curtain gas (CUR) 10 arbitrary units; collision cell exit potential (CXP) 7.0 V; entrance potential (EP) 10.0 V. The optimization of the MS transitions using the multiple-reaction monitoring (MRM) mode were accomplished as alnustone m/z 262.9→105.2 and IS (caffeine) m/z 195.2→138.0, respectively. For the pharmacokinetic study, 12 SD rats fasted for 12 h with free access to water prior to administration. After the rats were tail intravenously administrated of alnustone (5 mg/kg), a blood sample (0.4 mL) was collected from the orbital vein into heparinized tubes at appropriate time intervals (2 min, 5 min, 10 min, 15 min, 30 min, 45 min, 1 […]). The blank plasma samples were prepared before dosing. All blood samples were immediately centrifuged at 12,000× g for 10 min and stored at -75 °C until analysis. The pharmacokinetic parameters were evaluated using DAS 3.2.8 pharmacokinetic program.

[4] = obtained by our previous pharmacological experiment; cited from earlier work
[5] = Sprague-Dawley, rat, iv, Intestine
[6] = Sprague-Dawley, rat, iv, Kidney
[7] = Sprague-Dawley, rat, iv, Spleen
[8] = Sprague-Dawley, rat, iv, Stomach

O=C(/C=C/C=C/c1ccccc1)CCc1ccccc1 [alnustone, Alnustone]
Kp at 0.5 h ([1]; Sprague-Dawley, rat, iv, Brain): 0.11 ± 0.4
Kp at 1 h ([1]; Sprague-Dawley, rat, iv, Brain): 0.21 ± 0.56
Kp at 4 h ([1]; Sprague-Dawley, rat, iv, Brain, 4 h): 1.03 ± 0.08
Kp at 0.5 h ([1]; Sprague-Dawley, rat, iv, Heart): 0.36 ± 0.06
Kp at 1 h ([1]; Sprague-Dawley, rat, iv, Heart): 0.42 ± 0.1
Kp at 2 h ([1]; Sprague-Dawley, rat, iv, Heart): 0.59 ± 0.17
Kp at 4 h ([1]; Sprague-Dawley, rat, iv, Heart, 4 h): 1.78 ± 0.24
Kp at 0.5 h [1, 5]: 0.39 ± 0.07
Kp at 1 h [1, 5]: 0.66 ± 0.12
Kp at 2 h [1, 5]: 0.88 ± 0.19
Kp at 4 h ([1]; Sprague-Dawley, rat, iv, Intestine, 4 h): 1.18 ± 0.2
Kp at 0.5 h [1, 6]: 0.58 ± 0.07
Kp at 1 h [1, 6]: 0.74 ± 0.11
Kp at 2 h [1, 6]: 1.49 ± 0.27
Kp at 4 h ([1]; Sprague-Dawley, rat, iv, Kidney, 4 h): 1.86 ± 0.18
Kp at 0.5 h ([1]; Sprague-Dawley, rat, iv, Liver): 1.28 ± 0.34
Kp at 1 h ([1]; Sprague-Dawley, rat, iv, Liver): 1.31 ± 0.18
Kp at 2 h ([1]; Sprague-Dawley, rat, iv, Liver): 1.28 ± 0.29
Kp at 4 h ([1]; Sprague-Dawley, rat, iv, Liver, 4 h): 5.48 ± 0.66
Kp at 0.5 h ([1]; Sprague-Dawley, rat, iv, Lung): 1.3 ± 0.09
Kp at 1 h ([1]; Sprague-Dawley, rat, iv, Lung): 3.39 ± 0.39
Kp at 2 h ([1]; Sprague-Dawley, rat, iv, Lung): 4.55 ± 0.61
Kp at 4 h ([1]; Sprague-Dawley, rat, iv, Lung, 4 h): 15.8 ± 1.33
Kp at 0.5 h [1, 7]: 0.46 ± 0.06
Kp at 1 h [1, 7]: 1.24 ± 0.13
Kp at 2 h [1, 7]: 0.7 ± 0.06
Kp at 4 h ([1]; Sprague-Dawley, rat, iv, Spleen, 4 h): 1.54 ± 0.32
Kp at 0.5 h [1, 8]: 0.64 ± 0.14
Kp at 1 h [1, 8]: 0.52 ± 0.11
Kp at 2 h [1, 8]: 0.7 ± 0.03
Kp at 4 h ([1]; Sprague-Dawley, rat, iv, Stomach, 4 h): 3.66 ± 0.27
concentration at 4 h ([1]; Sprague-Dawley, rat, iv, brain, 4 h): 567 ng/mL
highest mean concentration in tissue ([1]; brain): 344.27 ng/g
time of maximum tissue concentration ([1]; brain): 1 h
highest mean concentration in tissue ([1]; heart): 900.97 ng/g
highest mean concentration in tissue ([1]; intestine): 1099.14 ng/g
time of maximum tissue concentration ([1]; intestine): 1 h
highest mean concentration in tissue ([1]; kidney): 1450.43 ng/g
highest mean concentration in tissue ([1]; liver): 3199.49 ng/g
highest mean concentration in tissue ([1]; lung): 5685.40 ng/g
time of maximum tissue concentration ([1]; lung): 1 h
blood-brain barrier penetration [1]: could enter the brain through the blood-brain barrier
highest mean concentration in tissue ([1]; spleen): 2077.14 ng/g
time of maximum tissue concentration ([1]; spleen): 1 h
highest mean concentration in tissue ([1]; stomach): 1588.90 ng/g
antitumor activity in vitro [2]: significant antitumor activity
Tmax [3]: 2 min
AUC(0-inf) ([3]; n = 12): 6030 ± 472 ng·h/mL
Cmax ([3]; n = 12): 7070 ± 821 ng/mL
Vd ([3]; n = 12): 1.57 ± 0.18 L/kg
clearance ([3]; n = 12): 13.8 mL/min/kg
half-life ([3]; n = 12): 1.31 ± 0.19 h
MRT inf ([3]; n = 12, read-out: MRT0–∞): 1.6 ± 0.22 h
MRT last ([3]; read-out: MRT0-t (total mean residence time up to 10 h)): 1.6 ± 0.22 h
AUC(0-t) ([3]; up to 10 h, n = 12): 6010 ± 567 ng·h/mL
LD50 [4]: 200 mg/kg

Source: PMC6749364, “Pharmacokinetics and Tissue Distribution of Alnustone in Rats after Intravenous Administration by Liquid Chromatography-Mass Spectrometry” (Molecules, 2019)
